Source: patent US12479847B2 (DANA-FARBER CANCER INSTITUTE, INC., priority 2019, dated 2025)

Columns and labels:
Test in all cases: KINOMEscan (ScanMAX) kinase profiling
Format in all cases: binding
[1] = target: T1, panel of 468 kinases (Homo sapiens, UniProt O00444); conditions: PLK4; 1 μM; read-out: % control
T1 construct: purchased KINOMEscan (ScanMAX) service
T1 sequence (O00444 1-970): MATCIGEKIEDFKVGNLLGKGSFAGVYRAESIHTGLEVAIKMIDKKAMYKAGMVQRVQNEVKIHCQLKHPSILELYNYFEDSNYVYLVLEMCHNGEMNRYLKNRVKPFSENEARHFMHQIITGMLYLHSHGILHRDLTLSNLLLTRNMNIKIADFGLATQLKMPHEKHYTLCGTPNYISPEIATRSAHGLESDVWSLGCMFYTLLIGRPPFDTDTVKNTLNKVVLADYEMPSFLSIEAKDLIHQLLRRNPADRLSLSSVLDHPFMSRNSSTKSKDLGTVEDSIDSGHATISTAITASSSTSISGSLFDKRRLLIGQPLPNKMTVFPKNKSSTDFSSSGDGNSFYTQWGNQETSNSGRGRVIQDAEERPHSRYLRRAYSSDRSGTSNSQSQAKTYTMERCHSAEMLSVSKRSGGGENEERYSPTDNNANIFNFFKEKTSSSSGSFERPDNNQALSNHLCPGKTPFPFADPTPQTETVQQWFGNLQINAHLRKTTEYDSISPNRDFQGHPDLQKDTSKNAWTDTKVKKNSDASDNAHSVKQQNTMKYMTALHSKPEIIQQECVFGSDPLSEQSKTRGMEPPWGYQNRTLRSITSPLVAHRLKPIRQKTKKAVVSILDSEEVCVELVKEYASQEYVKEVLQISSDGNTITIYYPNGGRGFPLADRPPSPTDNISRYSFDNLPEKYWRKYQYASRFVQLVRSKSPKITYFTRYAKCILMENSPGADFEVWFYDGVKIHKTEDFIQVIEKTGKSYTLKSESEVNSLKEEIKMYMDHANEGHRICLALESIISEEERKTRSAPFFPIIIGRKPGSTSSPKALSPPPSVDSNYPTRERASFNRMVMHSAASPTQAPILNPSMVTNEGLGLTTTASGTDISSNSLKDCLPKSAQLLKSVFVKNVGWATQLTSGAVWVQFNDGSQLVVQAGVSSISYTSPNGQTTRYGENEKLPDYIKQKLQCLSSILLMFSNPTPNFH

[2] = target: T2, panel of 468 kinases (Homo sapiens, UniProt O60674); conditions: JAK2(JH1domain-catalytic); 1 μM; read-out: % control
T2 construct: purchased KINOMEscan (ScanMAX) service

[3] = target: T3, panel of 468 kinases (Homo sapiens, UniProt P50613); conditions: CDK7; 1 μM; read-out: % control
T3 construct: purchased KINOMEscan (ScanMAX) service

[4] = target: T4, panel of 468 kinases (Homo sapiens, UniProt Q13237); conditions: PRKG2; 1 μM; read-out: % control
T4 construct: purchased KINOMEscan (ScanMAX) service
T4 sequence (Q13237 1-762): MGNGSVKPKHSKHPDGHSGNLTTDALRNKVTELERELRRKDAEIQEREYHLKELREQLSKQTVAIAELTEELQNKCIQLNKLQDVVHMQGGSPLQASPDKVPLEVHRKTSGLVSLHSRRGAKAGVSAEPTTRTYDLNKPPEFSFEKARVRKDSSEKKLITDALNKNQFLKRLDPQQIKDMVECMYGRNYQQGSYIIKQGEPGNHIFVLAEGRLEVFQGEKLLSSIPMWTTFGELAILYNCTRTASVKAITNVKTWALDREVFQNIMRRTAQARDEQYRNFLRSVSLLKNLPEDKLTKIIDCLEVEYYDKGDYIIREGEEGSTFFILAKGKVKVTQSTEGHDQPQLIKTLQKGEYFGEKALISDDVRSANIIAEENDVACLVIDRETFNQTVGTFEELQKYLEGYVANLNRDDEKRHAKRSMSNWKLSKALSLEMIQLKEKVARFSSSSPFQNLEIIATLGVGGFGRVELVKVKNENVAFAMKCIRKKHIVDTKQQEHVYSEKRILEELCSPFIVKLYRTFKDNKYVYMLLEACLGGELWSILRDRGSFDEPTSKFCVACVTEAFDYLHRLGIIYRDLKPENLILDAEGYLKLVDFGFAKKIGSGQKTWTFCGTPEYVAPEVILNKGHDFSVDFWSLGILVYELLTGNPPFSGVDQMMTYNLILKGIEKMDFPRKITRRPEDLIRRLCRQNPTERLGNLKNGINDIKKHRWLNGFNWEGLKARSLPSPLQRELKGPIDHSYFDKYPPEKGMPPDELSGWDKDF

[5] = target: T5, panel of 468 kinases (Homo sapiens, UniProt Q5S007); conditions: LRRK2; 1 μM; read-out: % control
T5 construct: purchased KINOMEscan (ScanMAX) service

[6] = target: T6, panel of 468 kinases (Homo sapiens, UniProt Q86Y07); conditions: VRK2; 1 μM; read-out: % control
T6 construct: purchased KINOMEscan (ScanMAX) service

[7] = target: T7, panel of 468 kinases (Homo sapiens, UniProt Q9Y2H1); conditions: NDR2; 1 μM; read-out: % control
T7 construct: purchased KINOMEscan (ScanMAX) service
T7 sequence (Q9Y2H1 whole entry): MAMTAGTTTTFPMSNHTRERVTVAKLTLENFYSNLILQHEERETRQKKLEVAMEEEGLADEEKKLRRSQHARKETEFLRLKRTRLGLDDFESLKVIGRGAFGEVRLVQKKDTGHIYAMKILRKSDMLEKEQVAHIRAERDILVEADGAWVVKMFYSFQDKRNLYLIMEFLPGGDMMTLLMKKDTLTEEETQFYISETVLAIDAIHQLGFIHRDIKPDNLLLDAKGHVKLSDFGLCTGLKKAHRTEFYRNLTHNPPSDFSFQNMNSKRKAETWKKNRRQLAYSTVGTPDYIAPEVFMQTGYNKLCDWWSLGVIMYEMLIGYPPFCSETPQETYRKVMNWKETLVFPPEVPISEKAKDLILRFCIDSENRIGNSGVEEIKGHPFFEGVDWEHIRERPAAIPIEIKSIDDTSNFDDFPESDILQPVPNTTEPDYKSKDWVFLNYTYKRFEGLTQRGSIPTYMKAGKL

T6 sequence (Q86Y07 whole entry): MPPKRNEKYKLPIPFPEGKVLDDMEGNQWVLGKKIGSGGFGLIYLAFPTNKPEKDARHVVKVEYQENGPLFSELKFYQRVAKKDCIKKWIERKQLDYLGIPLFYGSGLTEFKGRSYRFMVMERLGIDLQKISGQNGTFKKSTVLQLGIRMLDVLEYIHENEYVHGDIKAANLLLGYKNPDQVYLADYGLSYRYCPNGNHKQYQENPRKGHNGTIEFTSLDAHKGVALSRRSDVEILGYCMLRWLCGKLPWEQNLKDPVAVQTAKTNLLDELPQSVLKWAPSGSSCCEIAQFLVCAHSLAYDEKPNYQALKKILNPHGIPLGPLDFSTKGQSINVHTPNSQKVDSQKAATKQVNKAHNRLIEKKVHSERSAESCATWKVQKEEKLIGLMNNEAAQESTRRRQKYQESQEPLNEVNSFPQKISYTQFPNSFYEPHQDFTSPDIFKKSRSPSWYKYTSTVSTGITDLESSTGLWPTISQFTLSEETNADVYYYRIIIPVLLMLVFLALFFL
T3 sequence (P50613 whole entry): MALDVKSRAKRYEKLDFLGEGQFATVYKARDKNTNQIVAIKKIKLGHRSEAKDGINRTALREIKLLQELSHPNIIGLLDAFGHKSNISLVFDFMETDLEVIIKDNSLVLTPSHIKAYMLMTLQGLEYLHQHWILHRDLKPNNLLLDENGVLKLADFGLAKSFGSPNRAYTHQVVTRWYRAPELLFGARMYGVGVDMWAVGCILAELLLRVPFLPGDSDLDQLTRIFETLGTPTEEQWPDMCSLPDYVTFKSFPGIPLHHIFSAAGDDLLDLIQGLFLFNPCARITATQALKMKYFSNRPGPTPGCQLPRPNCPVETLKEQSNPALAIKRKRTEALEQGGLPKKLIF
T5 sequence (Q5S007 whole entry): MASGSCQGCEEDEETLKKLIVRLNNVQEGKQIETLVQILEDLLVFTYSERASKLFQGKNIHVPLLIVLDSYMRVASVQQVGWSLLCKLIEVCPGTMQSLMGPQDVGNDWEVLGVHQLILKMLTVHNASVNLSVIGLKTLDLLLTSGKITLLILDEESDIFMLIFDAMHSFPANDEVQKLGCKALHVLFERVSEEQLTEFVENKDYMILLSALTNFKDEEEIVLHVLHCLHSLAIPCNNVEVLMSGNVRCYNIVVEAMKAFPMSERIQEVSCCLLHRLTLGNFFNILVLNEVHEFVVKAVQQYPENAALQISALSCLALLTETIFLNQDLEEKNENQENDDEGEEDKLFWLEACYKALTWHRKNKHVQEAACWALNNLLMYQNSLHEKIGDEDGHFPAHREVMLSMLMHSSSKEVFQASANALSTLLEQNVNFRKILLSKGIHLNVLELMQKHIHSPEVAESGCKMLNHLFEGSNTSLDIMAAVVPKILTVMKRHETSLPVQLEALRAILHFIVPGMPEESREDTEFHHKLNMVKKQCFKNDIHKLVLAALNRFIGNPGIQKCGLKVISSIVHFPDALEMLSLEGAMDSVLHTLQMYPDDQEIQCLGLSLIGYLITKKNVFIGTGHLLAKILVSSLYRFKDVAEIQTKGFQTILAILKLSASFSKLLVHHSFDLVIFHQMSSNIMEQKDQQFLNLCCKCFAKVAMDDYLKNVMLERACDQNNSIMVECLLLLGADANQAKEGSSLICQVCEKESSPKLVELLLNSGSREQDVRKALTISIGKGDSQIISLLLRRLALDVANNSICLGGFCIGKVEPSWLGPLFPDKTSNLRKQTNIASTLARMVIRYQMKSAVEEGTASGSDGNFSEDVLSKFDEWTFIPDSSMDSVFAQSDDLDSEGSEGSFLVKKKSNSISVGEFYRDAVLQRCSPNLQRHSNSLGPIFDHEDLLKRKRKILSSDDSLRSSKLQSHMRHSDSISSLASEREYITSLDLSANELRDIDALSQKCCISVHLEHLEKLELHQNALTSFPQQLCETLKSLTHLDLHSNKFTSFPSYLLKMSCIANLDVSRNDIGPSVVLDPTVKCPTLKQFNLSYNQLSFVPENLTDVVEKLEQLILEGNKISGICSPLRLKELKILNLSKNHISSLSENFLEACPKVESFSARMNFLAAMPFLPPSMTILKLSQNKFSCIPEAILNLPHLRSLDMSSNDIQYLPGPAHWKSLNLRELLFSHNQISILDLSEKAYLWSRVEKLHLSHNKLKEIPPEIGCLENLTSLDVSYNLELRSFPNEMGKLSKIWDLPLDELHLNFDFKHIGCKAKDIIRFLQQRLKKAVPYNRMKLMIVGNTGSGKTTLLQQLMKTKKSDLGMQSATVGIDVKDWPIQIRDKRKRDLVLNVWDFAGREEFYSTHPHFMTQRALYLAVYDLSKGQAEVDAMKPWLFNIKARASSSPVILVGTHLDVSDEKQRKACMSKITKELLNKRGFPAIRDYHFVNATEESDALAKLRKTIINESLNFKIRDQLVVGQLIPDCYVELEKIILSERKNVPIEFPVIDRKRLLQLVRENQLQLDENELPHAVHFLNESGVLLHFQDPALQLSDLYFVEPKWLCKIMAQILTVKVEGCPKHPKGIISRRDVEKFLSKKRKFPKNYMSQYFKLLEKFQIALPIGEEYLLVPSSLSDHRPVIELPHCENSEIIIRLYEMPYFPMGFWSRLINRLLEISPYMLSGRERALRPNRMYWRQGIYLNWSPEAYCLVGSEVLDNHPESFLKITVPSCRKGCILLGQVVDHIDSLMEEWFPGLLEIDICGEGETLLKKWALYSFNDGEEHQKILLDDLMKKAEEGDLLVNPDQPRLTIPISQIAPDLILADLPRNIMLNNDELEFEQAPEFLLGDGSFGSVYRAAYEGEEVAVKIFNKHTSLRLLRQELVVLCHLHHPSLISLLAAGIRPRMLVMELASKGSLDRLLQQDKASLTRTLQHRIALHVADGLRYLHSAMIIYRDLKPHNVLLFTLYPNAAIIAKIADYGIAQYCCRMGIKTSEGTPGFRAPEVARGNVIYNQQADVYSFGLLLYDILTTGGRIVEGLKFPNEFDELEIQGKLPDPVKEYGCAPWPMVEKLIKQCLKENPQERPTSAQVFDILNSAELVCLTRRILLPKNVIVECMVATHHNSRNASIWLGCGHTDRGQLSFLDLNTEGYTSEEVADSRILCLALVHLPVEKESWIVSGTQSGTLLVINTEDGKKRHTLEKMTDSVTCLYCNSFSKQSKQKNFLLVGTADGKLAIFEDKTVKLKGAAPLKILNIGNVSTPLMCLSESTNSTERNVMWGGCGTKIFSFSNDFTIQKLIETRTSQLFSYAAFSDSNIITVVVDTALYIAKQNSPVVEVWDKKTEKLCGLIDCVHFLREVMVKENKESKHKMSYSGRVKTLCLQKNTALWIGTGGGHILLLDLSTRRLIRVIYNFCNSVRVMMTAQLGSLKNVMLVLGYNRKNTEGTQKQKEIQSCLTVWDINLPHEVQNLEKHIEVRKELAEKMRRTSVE
T2 sequence (O60674 whole entry): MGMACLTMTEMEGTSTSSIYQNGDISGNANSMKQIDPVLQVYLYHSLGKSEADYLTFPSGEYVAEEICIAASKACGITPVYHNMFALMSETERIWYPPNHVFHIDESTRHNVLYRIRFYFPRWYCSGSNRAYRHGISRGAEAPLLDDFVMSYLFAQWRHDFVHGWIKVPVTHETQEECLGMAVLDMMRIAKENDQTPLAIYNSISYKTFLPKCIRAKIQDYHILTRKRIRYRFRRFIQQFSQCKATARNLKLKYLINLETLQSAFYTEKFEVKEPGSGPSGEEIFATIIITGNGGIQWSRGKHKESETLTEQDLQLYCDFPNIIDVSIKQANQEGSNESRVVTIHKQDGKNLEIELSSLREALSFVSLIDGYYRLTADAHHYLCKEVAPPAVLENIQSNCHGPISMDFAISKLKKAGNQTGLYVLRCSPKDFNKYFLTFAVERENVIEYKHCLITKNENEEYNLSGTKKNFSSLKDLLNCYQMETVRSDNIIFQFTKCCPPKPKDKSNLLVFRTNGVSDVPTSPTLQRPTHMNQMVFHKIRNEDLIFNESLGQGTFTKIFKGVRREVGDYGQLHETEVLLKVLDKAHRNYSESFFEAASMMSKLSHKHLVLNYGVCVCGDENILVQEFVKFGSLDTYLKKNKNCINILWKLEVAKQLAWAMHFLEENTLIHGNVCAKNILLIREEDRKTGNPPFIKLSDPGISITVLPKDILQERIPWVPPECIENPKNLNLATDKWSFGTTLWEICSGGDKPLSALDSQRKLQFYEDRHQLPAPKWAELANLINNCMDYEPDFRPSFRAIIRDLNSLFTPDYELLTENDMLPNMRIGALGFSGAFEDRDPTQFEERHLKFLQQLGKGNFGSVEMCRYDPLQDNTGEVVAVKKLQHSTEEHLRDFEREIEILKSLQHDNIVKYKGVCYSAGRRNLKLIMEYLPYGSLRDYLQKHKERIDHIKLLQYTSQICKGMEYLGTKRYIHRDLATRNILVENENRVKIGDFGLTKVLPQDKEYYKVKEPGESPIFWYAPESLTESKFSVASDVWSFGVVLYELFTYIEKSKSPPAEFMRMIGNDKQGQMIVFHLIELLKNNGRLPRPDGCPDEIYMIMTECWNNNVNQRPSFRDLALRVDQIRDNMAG

SMILES | remaining binding at 1 µM [1] | remaining binding at 1 µM [2] | remaining binding at 1 µM [3] | remaining binding at 1 µM [4] | remaining binding at 1 µM [5] | remaining binding at 1 µM [6] | remaining binding at 1 µM [7]
CNc1nc(Nc2ccc(C(=O)N3CCC(N4CCOCC4)CC3)c3c2OCO3)nc2[nH]cc(Cl)c12 [Compound 75, (7-((5-chloro-4-(methylamino)-7H-pyrrolo[2,3-d]pyrimidin-2-yl)amino)benzo[d][1,3]dioxol-4-yl)(4-morpholinopiperidin-1-yl)methanone] | 9.6% | 24% | 21% | 100% | 1.4% | 88% | 100%
CNc1nc(Nc2ccc(S(=O)(=O)N3CCC(N4CCOCC4)CC3)cc2OC)nc2[nH]cc(Cl)c12 [Compound 12, 5-chloro-N2-(2-methoxy-4-((4-morpholinopiperidin-1-yl)sulfonyl)phenyl)-N4-methyl-7H-pyrrolo[2,3-d]pyrimidine-2,4-diamine] | 22% | 78% | 98% | 100% | 0.8% | 94% | 100%
CNc1nc(Nc2ccc(P3(=O)CCN(C4CCOCC4)CC3)cc2OC)nc2[nH]cc(Cl)c12 [Compound 77, 4-(4-((5-chloro-4-(methylamino)-7H-pyrrolo[2,3-d]pyrimidin-2-yl)amino)-3-methoxyphenyl)-1-(tetrahydro-2H-pyran-4-yl)-1,4-azaphosphinane 4-oxide] | 15% | 58% | 86% | 100% | 0.4% | 89% | 100%
